Measurements from paper PMC7221793, “Metabolism and Pharmacokinetics of SP-8356, a Novel (1S)-(−)-Verbenone Derivative, in Rats and Dogs and Its Implications in Humans” (Molecules, 2020).

What was measured:
[1] = In vivo metabolite identification, pooled rat urine; conditions: rat pooled urine 0–24 h, single i.v. dose of SP-8356
Description: Rat urine samples were collected from the animal studies approved by the IACUC of Korea University (Approval No.: KUIACUC-2017-124; Approval date: Jul. 29, 2017). SP-8356 dissolved in DMA/Cremophor EL/saline (5/10/85 vol.%) was dosed i.v. at 10 mg/kg (n = 5/dose group) to male SD rats (8 weeks old; (255–275) g; Koatech Inc., Gyeonggi, Republic of Korea) housed individually in metabolic cages. Urine samples were collected for ((0–4), (4–8) and (8–24)) h. Pooled urine samples were mixed with equal volume of acetonitrile containing HSDH (1 μg/mL) as IS, followed by filtration with a syringeless filter device (Mini-UniPrep™, PTFE filter media with polypropylene housing, 0.45 µm). The filtrate was analyzed by Agilent 6530 Q-TOF LC-MS/MS system equipped with dual AJS ESI ion source and Agilent 1200 series HPLC system, as follows.
Chromatographic separation was achieved on an Agilent Eclipse C18 column (2.1 mm × 100 mm, 3.5 µm) by a gradient elution with a mobile phase consisting of 0.1 vol.% formic acid in water (A) and 0.1 vol.% formic acid in acetonitrile (B) at 50 °C: starting with 5 vol.% B for 2 min, ramping to 95 vol.% B over 1 min, maintaining for 3 min. The mobile phase flow rate was kept at 0.45 mL/min throughout the run. The sample injection volume was 5 µL. […]

[2] = In vivo metabolite identification, pooled dog plasma (Q-TOF LC-MS/MS); conditions: i.v. SP-8356 50 mg/kg; for AUClast (%): % versus total AUClast of parent and all detected metabolites; for AUClast (AR∙h) × 10^2: AR = peak area ratio versus internal standard; for Tmax: male, Beagle, iv, time of highest AR
Description: (§1) Plasma samples from the i.v. administrations described in Section 4.2 and Section 4.3 were used in this study. Plasma samples pooled at each time point were subjected to sample preparation as described in Section 4.2. The prepared samples were analyzed by Agilent 6530 Q-TOF LC-MS/MS system equipped with dual AJS ESI ion source and Agilent 1200 series HPLC system as described below.
(§2) Chromatographic separation was achieved on an Agilent Eclipse C18 column (2.1 mm × 100 mm, 3.5 µm) by a gradient elution with a mobile phase consisting of 0.1 vol.% formic acid in water (A) and 0.1 vol.% formic acid in acetonitrile (B) at 50 °C: starting with 5 vol.% B for 2 min, ramping to 95 vol.% B over 1 min, maintaining for 3 min. The mobile phase flow rate was kept at 0.45 mL/min throughout the run. The sample injection volume was 5 µL. Ion source parameters were set as follows: capillary voltage, 3500 V; drying gas, 12 L/min and 300 °C; nebulizer gas, 30 psi; sheath gas, 12 L/min and 300 °C. Mass spectra were acquired in negative ion auto MS/MS mode (F, 135 V; CE, 25 eV) with full scan range of m/z (100–1000) and mass scan rate of 8 spectra/s. Metabolites were identified using Agilent MassHunter Metabolite ID software (version B.04.00) (Santa Clara, CA, USA). Chromatograms and mass spectra of the parent and identified metabolites were extracted using Agilent MassHunter Qualitative Analysis software (version B.05.00) (Santa Clara, CA, USA).

[3] = In vivo metabolite identification, pooled rat plasma (Q-TOF LC-MS/MS); conditions: i.v. SP-8356 20 mg/kg; for AUClast (%): % versus total AUClast of parent and all detected metabolites; for AUClast (AR∙h) × 10^2: AR = peak area ratio versus internal standard; for Tmax: male, SD, iv, time of highest AR
Description: as §1, §2

metabolites detected in urine [1]	AUClast (%) [2]	AUClast (AR∙h) × 10^2 [2]	Tmax [2]	AUClast (%) [3]	AUClast (AR∙h) × 10^2 [3]	Tmax [3]	Compound
detected	3.05%	120.5 (AR∙h) × 10^2	60 min	0.84%	1.14 (AR∙h) × 10^2	15 min	COc1cc(C=CC2=CC(=O)C3CC2C3(C)C)cc(OC2OC(C(=O)O)C(O)C(O)C2O)c1OC1OC(C(=O)O)C(O)C(O)C1O (stereo not shown) [M5]
–	0.07%	2.7 (AR∙h) × 10^2	4.98 min	0.40%	0.55 (AR∙h) × 10^2	1.02 min	CC1(C)[C@@H]2C[C@H]1C(/C=C/c1cc(O)c(O)c(O)c1)=CC2=O [M3]
